Results as given in the NIST ThermoML archive (doi:10.1021/je700290j).

How the values were obtained:
[1] = for surface tension liquid-gas: Ring tensiometer; for mass density / viscosity / speed of sound: 101 kPa, Liquid; for speed of sound: Sing-around technique in a fixed-path interferometer
[2] = xn = mol fraction of the nth substance listed; details: 293.15 K; for surface tension liquid-gas: Ring tensiometer; for speed of sound / mass density / viscosity: 101 kPa, Liquid; for speed of sound: Sing-around technique in a fixed-path interferometer

C1CCNCC1 [piperidine]
[1]
Details | mass density [kg/m3] | speed of sound [m/s] | surface tension liquid-gas [mN/m] | viscosity [mPa·s]
293.15 K | 859.87 | 1389.4 | 30.27 | 0.8207
298.15 K | – | – | 29.56 | –

C1CCNCC1 [piperidine] + C1CCNC1
[2], x1 = 1
Details | mass density [kg/m3] | speed of sound [m/s] | surface tension liquid-gas [mN/m] | viscosity [mPa·s]
– | 859.87 | 1389.4 | 30.27 | 0.8207

C1CCNC1 [pyrrolidine]
[1]
Details | mass density [kg/m3] | speed of sound [m/s] | surface tension liquid-gas [mN/m] | viscosity [mPa·s]
293.15 K | 863.81 | 1384.4 | 30.11 | 1.551
298.15 K | – | – | 29.75 | –

C1CCNC1 [pyrrolidine] + C1CCNCC1
[2]
Details | mass density [kg/m3] | speed of sound [m/s] | surface tension liquid-gas [mN/m] | viscosity [mPa·s]
x2 = 0 | 863.81 | 1384.4 | 30.11 | 1.551
x2 = 0.1043 | 863.61 | 1385.4 | 30.36 | 1.457
x2 = 0.2304 | 863.4 | 1386.3 | 30.61 | 1.364
x2 = 0.496 | 862.79 | 1388.2 | 30.56 | 1.201
x2 = 0.6423 | 862.19 | 1390.1 | 30.51 | 1.038
x2 = 0.7053 | 861.89 | 1390.8 | 30.47 | 0.9752
x2 = 0.8273 | 861.6 | 1391.5 | 30.42 | 0.9124
